From the NIST ThermoML archive (doi:10.1016/j.jct.2016.06.016)

Test: xn = mol fraction of the nth substance listed
Conditions: 100 kPa, Liquid; for viscosity: Concentric cylinders viscometry; for mass density: Vibrating tube method

CCOC(=O)CCC(=O)OCC [diethyl butanedioate] + CCCCCCO
Conditions | mass density [kg/m3] | viscosity [mPa·s]
288.15 K, x1 = 0.0999 | 849.53 | 4.539
288.15 K, x1 = 0.2 | 875.7 | 3.729
288.15 K, x1 = 0.3001 | 900.45 | 3.285
288.15 K, x1 = 0.4 | 923.97 | 3.019
288.15 K, x1 = 0.4999 | 946.39 | 2.869
288.15 K, x1 = 0.6 | 967.72 | 2.789
288.15 K, x1 = 0.7002 | 988.27 | 2.788
288.15 K, x1 = 0.7999 | 1007.86 | 2.856
288.15 K, x1 = 0.9 | 1026.75 | 2.954
288.15 K, x1 = 1 | 1044.83 | 3.195
293.15 K, x1 = 0.0999 | 845.73 | 3.876
293.15 K, x1 = 0.2 | 871.67 | 3.213
293.15 K, x1 = 0.3001 | 896.23 | 2.842
293.15 K, x1 = 0.4 | 919.56 | 2.62
293.15 K, x1 = 0.4999 | 941.82 | 2.495
293.15 K, x1 = 0.6 | 963 | 2.432
293.15 K, x1 = 0.7002 | 983.42 | 2.435
293.15 K, x1 = 0.7999 | 1002.88 | 2.495
293.15 K, x1 = 0.9 | 1021.66 | 2.61
293.15 K, x1 = 1 | 1039.63 | 2.807
298.15 K, x1 = 0.0999 | 841.91 | 3.358
298.15 K, x1 = 0.2 | 867.63 | 2.817
298.15 K, x1 = 0.3001 | 891.99 | 2.508
298.15 K, x1 = 0.4 | 915.15 | 2.327
298.15 K, x1 = 0.4999 | 937.24 | 2.231
298.15 K, x1 = 0.6 | 958.28 | 2.18
298.15 K, x1 = 0.7002 | 978.57 | 2.188
298.15 K, x1 = 0.7999 | 997.91 | 2.24
298.15 K, x1 = 0.9 | 1016.57 | 2.337
298.15 K, x1 = 1 | 1034.44 | 2.491
303.15 K, x1 = 0.0999 | 838.07 | 2.932
303.15 K, x1 = 0.2 | 863.58 | 2.477
303.15 K, x1 = 0.3001 | 887.75 | 2.222
303.15 K, x1 = 0.4 | 910.73 | 2.071
303.15 K, x1 = 0.4999 | 932.67 | 1.99
303.15 K, x1 = 0.6 | 953.56 | 1.952
303.15 K, x1 = 0.7002 | 973.72 | 1.962
303.15 K, x1 = 0.7999 | 992.94 | 2.01
303.15 K, x1 = 0.9 | 1011.5 | 2.098
303.15 K, x1 = 1 | 1029.25 | 2.229
308.15 K, x1 = 0.0999 | 834.22 | 2.572
308.15 K, x1 = 0.2 | 859.52 | 2.193
308.15 K, x1 = 0.3001 | 883.49 | 1.98
308.15 K, x1 = 0.4 | 906.3 | 1.854
308.15 K, x1 = 0.4999 | 928.09 | 1.788
308.15 K, x1 = 0.6 | 948.84 | 1.759
308.15 K, x1 = 0.7002 | 968.87 | 1.77
308.15 K, x1 = 0.7999 | 987.97 | 1.816
308.15 K, x1 = 0.9 | 1006.42 | 1.893
308.15 K, x1 = 1 | 1024.08 | 2.008
313.15 K, x1 = 0.0999 | 830.34 | 2.276
313.15 K, x1 = 0.2 | 855.43 | 1.961
313.15 K, x1 = 0.3001 | 879.22 | 1.783
313.15 K, x1 = 0.4 | 901.87 | 1.679
313.15 K, x1 = 0.4999 | 923.5 | 1.626
313.15 K, x1 = 0.6 | 944.11 | 1.604
313.15 K, x1 = 0.7002 | 964.01 | 1.617
313.15 K, x1 = 0.7999 | 983 | 1.659
313.15 K, x1 = 0.9 | 1001.34 | 1.729
313.15 K, x1 = 1 | 1018.9 | 1.821
318.15 K, x1 = 0.0999 | 826.44 | 2.013
318.15 K, x1 = 0.2 | 851.33 | 1.748
318.15 K, x1 = 0.3001 | 874.93 | 1.598
318.15 K, x1 = 0.4 | 897.41 | 1.511
318.15 K, x1 = 0.4999 | 918.89 | 1.468
318.15 K, x1 = 0.6 | 939.37 | 1.452
318.15 K, x1 = 0.7002 | 959.15 | 1.467
318.15 K, x1 = 0.7999 | 978.02 | 1.506
318.15 K, x1 = 0.9 | 996.26 | 1.57
318.15 K, x1 = 1 | 1013.72 | 1.66
323.15 K, x1 = 0.0999 | 822.52 | 1.817
323.15 K, x1 = 0.2 | 847.2 | 1.584
323.15 K, x1 = 0.3001 | 870.62 | 1.458
323.15 K, x1 = 0.4 | 892.94 | 1.386
323.15 K, x1 = 0.4999 | 914.27 | 1.344
323.15 K, x1 = 0.6 | 934.62 | 1.337
323.15 K, x1 = 0.7002 | 954.28 | 1.353
323.15 K, x1 = 0.7999 | 973.05 | 1.391
323.15 K, x1 = 0.9 | 991.18 | 1.448
323.15 K, x1 = 1 | 1008.55 | 1.523

CCOC(=O)CCC(=O)OCC [diethyl butanedioate] + CCCCO
Conditions | mass density [kg/m3] | viscosity [mPa·s]
288.15 K, x1 = 0.1 | 851.32 | 2.665
288.15 K, x1 = 0.2001 | 884.48 | 2.382
288.15 K, x1 = 0.3 | 913.45 | 2.302
288.15 K, x1 = 0.3999 | 938.87 | 2.306
288.15 K, x1 = 0.5 | 961.37 | 2.342
288.15 K, x1 = 0.6001 | 981.44 | 2.405
288.15 K, x1 = 0.6998 | 999.46 | 2.515
288.15 K, x1 = 0.7999 | 1015.94 | 2.692
288.15 K, x1 = 0.8997 | 1031 | 2.934
288.15 K, x1 = 1 | 1044.83 | 3.195
293.15 K, x1 = 0.1 | 847.26 | 2.339
293.15 K, x1 = 0.2001 | 880.14 | 2.106
293.15 K, x1 = 0.3 | 908.86 | 2.041
293.15 K, x1 = 0.3999 | 934.12 | 2.045
293.15 K, x1 = 0.5 | 956.51 | 2.077
293.15 K, x1 = 0.6001 | 976.5 | 2.133
293.15 K, x1 = 0.6998 | 994.45 | 2.228
293.15 K, x1 = 0.7999 | 1010.87 | 2.38
293.15 K, x1 = 0.8997 | 1025.85 | 2.585
293.15 K, x1 = 1 | 1039.63 | 2.807
298.15 K, x1 = 0.1 | 843.14 | 2.072
298.15 K, x1 = 0.2001 | 875.78 | 1.877
298.15 K, x1 = 0.3 | 904.32 | 1.825
298.15 K, x1 = 0.3999 | 929.42 | 1.831
298.15 K, x1 = 0.5 | 951.69 | 1.861
298.15 K, x1 = 0.6001 | 971.57 | 1.914
298.15 K, x1 = 0.6998 | 989.44 | 2.003
298.15 K, x1 = 0.7999 | 1005.79 | 2.141
298.15 K, x1 = 0.8997 | 1020.71 | 2.318
298.15 K, x1 = 1 | 1034.44 | 2.491
303.15 K, x1 = 0.1 | 838.99 | 1.845
303.15 K, x1 = 0.2001 | 871.41 | 1.682
303.15 K, x1 = 0.3 | 899.78 | 1.64
303.15 K, x1 = 0.3999 | 924.74 | 1.649
303.15 K, x1 = 0.5 | 946.87 | 1.678
303.15 K, x1 = 0.6001 | 966.65 | 1.727
303.15 K, x1 = 0.6998 | 984.43 | 1.806
303.15 K, x1 = 0.7999 | 1000.71 | 1.925
303.15 K, x1 = 0.8997 | 1015.58 | 2.078
303.15 K, x1 = 1 | 1029.25 | 2.229
308.15 K, x1 = 0.1 | 834.83 | 1.65
308.15 K, x1 = 0.2001 | 867.03 | 1.515
308.15 K, x1 = 0.3 | 895.21 | 1.482
308.15 K, x1 = 0.3999 | 920.02 | 1.492
308.15 K, x1 = 0.5 | 942.04 | 1.52
308.15 K, x1 = 0.6001 | 961.72 | 1.564
308.15 K, x1 = 0.6998 | 979.42 | 1.635
308.15 K, x1 = 0.7999 | 995.63 | 1.741
308.15 K, x1 = 0.8997 | 1010.45 | 1.876
308.15 K, x1 = 1 | 1024.08 | 2.008
313.15 K, x1 = 0.1 | 830.64 | 1.49
313.15 K, x1 = 0.2001 | 862.62 | 1.379
313.15 K, x1 = 0.3 | 890.63 | 1.355
313.15 K, x1 = 0.3999 | 915.3 | 1.366
313.15 K, x1 = 0.5 | 937.2 | 1.394
313.15 K, x1 = 0.6001 | 956.78 | 1.437
313.15 K, x1 = 0.6998 | 974.41 | 1.502
313.15 K, x1 = 0.7999 | 990.55 | 1.596
313.15 K, x1 = 0.8997 | 1005.31 | 1.712
313.15 K, x1 = 1 | 1018.9 | 1.821
318.15 K, x1 = 0.1 | 826.42 | 1.337
318.15 K, x1 = 0.2001 | 858.18 | 1.245
318.15 K, x1 = 0.3 | 886.02 | 1.226
318.15 K, x1 = 0.3999 | 910.54 | 1.239
318.15 K, x1 = 0.5 | 932.33 | 1.266
318.15 K, x1 = 0.6001 | 951.83 | 1.307
318.15 K, x1 = 0.6998 | 969.38 | 1.367
318.15 K, x1 = 0.7999 | 985.47 | 1.451
318.15 K, x1 = 0.8997 | 1000.18 | 1.556
318.15 K, x1 = 1 | 1013.72 | 1.66
323.15 K, x1 = 0.1 | 822.17 | 1.218
323.15 K, x1 = 0.2001 | 853.72 | 1.142
323.15 K, x1 = 0.3 | 881.38 | 1.129
323.15 K, x1 = 0.3999 | 905.78 | 1.143
323.15 K, x1 = 0.5 | 927.46 | 1.169
323.15 K, x1 = 0.6001 | 946.87 | 1.208
323.15 K, x1 = 0.6998 | 964.35 | 1.264
323.15 K, x1 = 0.7999 | 980.38 | 1.342
323.15 K, x1 = 0.8997 | 995.05 | 1.435
323.15 K, x1 = 1 | 1008.55 | 1.523
